Results: patent US20180016596A1, “NUCLEIC ACID CONSTRUCTS, PLANTS COMPRISING SAME AND USES THEREOF IN ENHANCING PLANT PEST RESISTANCE AND ALTERING PLANT MONOTERPENE PROFILE” (Futuragene Israel Ltd., priority 2014, published 2018)

Tested on: Ophelimus maskelli
Assay: Free choice experiment: Eucalyptus camaldulensis saplings with monoterpene disks exposed to Ophelimus maskelli gall wasps
Assay type: in vivo
Conditions: for Eucalyptus camaldulensis resistance to Ophelimus maskelli infection / Ophelimus maskelli oviposition / number of infected leaves compared to control / number of galls per leaf compared to control: free choice, in words; for Ophelimus maskelli oviposition: compared to controls; for number of infected leaves compared to control: eucalyptol vs mineral oil, geraniol and citronellal vs mineral oil and eucalyptol controls; for number of galls per leaf compared to control: vs mineral oil and eucalyptol controls
Description: Preparation of monoterpene disks—100 μl of pure monoterpene solutions of geraniol, citronellal, eucalyptol (also known as 1,8-cineole, 1,8-epoxy-p-menthane) or mineral oil (Sigma-Aldrich Cat. Nos. G9698, 27470, C80601 or M5904, respectively) were each mixed with 5 ml of Vaseline. The mixed solutions were then spread using a spatula onto 20 mm in diameter filter paper disks (Whatman 3 mm cellulose chromatography papers, Sigma-Aldrich Cat. No. Z742422).
Free choice experiments—The free-choice experiments, were gall wasps were free to choose which plant to infest in a given cage, were carried out with Ophelimus maskelli gall wasp in three net cages of 80 cm×100 cm×150 cm in a greenhouse (28 ±2° C.) as described in Bleeker et al. [Plant Physiol. (2009) 151(2): 925-935], with the following modifications. Four Eucalyptus camaldulensis 3 months old saplings were placed randomly in each cage and 10 disks with either geraniol, citronellal, eucalyptol (1,8-Cineole, used as control) or mineral oil (used as control) were attached by metal wires to the branches of each sapling (10 branches for each sapling) (see FIG. 2) so that each sapling had 10 disks attached with one of the treatments. Next, 500 Ophelimus maskelli female adult wasps were released in the middle of each net cage. One week later the disks were removed from the branches of the saplings, the saplings were taken out of the cage and thereafter the Eucalyptus saplings were transferred to an insect free net house, an outdoor perimeter surrounded by a 50 mesh insect proof net. The plants were maintained in the net house for 6 weeks after inoculation. At the end of the six week period, infection levels were evaluated by counting the number of galls developed on the treated saplings.

[1] = average of 3 cages, leaves with 1-10 galls per leaf
[2] = average of 3 cages, leaves with 10-50 galls per leaf
[3] = average of 3 cages, leaves with 50-100 galls per leaf
[4] = cage 1, leaves with 1-10 galls per leaf, 6 weeks after inoculation
[5] = cage 1, leaves with 10-50 galls per leaf, 6 weeks after inoculation
[6] = cage 1, leaves with 50-100 galls per leaf, 6 weeks after inoculation
[7] = cage 1, total, 6 weeks after inoculation
[8] = cage 2, leaves with 1-10 galls per leaf, 6 weeks after inoculation
[9] = cage 2, leaves with 10-50 galls per leaf, 6 weeks after inoculation
[10] = cage 2, leaves with 50-100 galls per leaf, 6 weeks after inoculation
[11] = cage 2, total, 6 weeks after inoculation
[12] = cage 3, leaves with 1-10 galls per leaf, 6 weeks after inoculation
[13] = cage 3, leaves with 10-50 galls per leaf, 6 weeks after inoculation
[14] = cage 3, leaves with 50-100 galls per leaf, 6 weeks after inoculation
[15] = cage 3, total, 6 weeks after inoculation

`CC(C)=CCCC(C)CC=O` (stereo not shown) [citronellal, 3,7-dimethyloct-6-en-1-al] was tested, and the “Number of infected leaves” value [1] was 1, the “Number of infected leaves” value [2] was 3 and the “Number of infected leaves” value [3] was 0. For the same compound, the “Number of infected leaves” value (average of 3 cages, total) was 4, the “Number of infected leaves” value [4] was 1 and the “Number of infected leaves” value [5] was 4. For the same compound, the “Number of infected leaves” value [6] was 0, the “Number of infected leaves” value [7] was 5 and the “Number of infected leaves” value [8] was 1. The “Number of infected leaves” value [9] was 2, the “Number of infected leaves” value [10] was 0 and the “Number of infected leaves” value [11] was 3. The “Number of infected leaves” value [12] was 1, the “Number of infected leaves” value [13] was 3 and the “Number of infected leaves” value [14] was 0. The “Number of infected leaves” value [15] was 4, the “Eucalyptus camaldulensis resistance to Ophelimus maskelli infection” value was “significantly increased” and the Ophelimus maskelli oviposition was “significantly decreased”. The “number of infected leaves compared to control” value was “reduced number of infected leaves” and the “number of galls per leaf compared to control” value was “reduced number of galls per leaf”.

For `CC12CCC(CC1)C(C)(C)O2` [eucalyptol, 1,8-cineole, reference compound], the “Number of infected leaves” value [1] was 5.333, the “Number of infected leaves” value [2] was 10 and the “Number of infected leaves” value [3] was 6. For the same compound, the “Number of infected leaves” value (average of 3 cages, total) was 21.33, the “Number of infected leaves” value [4] was 4 and the “Number of infected leaves” value [5] was 14. For the same compound, the “Number of infected leaves” value [6] was 6, the “Number of infected leaves” value [7] was 24 and the “Number of infected leaves” value [8] was 5. For the same compound, the “Number of infected leaves” value [9] was 6, the “Number of infected leaves” value [10] was 6 and the “Number of infected leaves” value [11] was 17. For the same compound, the “Number of infected leaves” value [12] was 7, the “Number of infected leaves” value [13] was 10 and the “Number of infected leaves” value [14] was 6. For the same compound, the “Number of infected leaves” value [15] was 23, the Ophelimus maskelli oviposition was “did not have a negative effect” and the “number of infected leaves compared to control” value was “slight increase”.

`CC(C)=CCC/C(C)=C/CO` [geraniol, (trans)-3,7-Dimethyl-2,6-octadien-1-ol] was tested, and the “Number of infected leaves” value [1] was 4, the “Number of infected leaves” value [2] was 2 and the “Number of infected leaves” value [3] was 1. The “Number of infected leaves” value (average of 3 cages, total) was 7, the “Number of infected leaves” value [4] was 4 and the “Number of infected leaves” value [5] was 3. For the same compound, the “Number of infected leaves” value [6] was 1, the “Number of infected leaves” value [7] was 8 and the “Number of infected leaves” value [8] was 4. The “Number of infected leaves” value [9] was 2, the “Number of infected leaves” value [10] was 1 and the “Number of infected leaves” value [11] was 7. The “Number of infected leaves” value [12] was 4, the “Number of infected leaves” value [13] was 1 and the “Number of infected leaves” value [14] was 1. For the same compound, the “Number of infected leaves” value [15] was 6, the “Eucalyptus camaldulensis resistance to Ophelimus maskelli infection” value was “significantly increased” and the Ophelimus maskelli oviposition was “significantly decreased”. The “number of infected leaves compared to control” value was “reduced number of infected leaves” and the “number of galls per leaf compared to control” value was “reduced number of galls per leaf”.
